Data as given in PMC9562282, “Reaction of Thiosulfate Dehydrogenase with a Substrate Mimic Induces Dissociation of the Cysteine Heme Ligand Giving Insights into the Mechanism of Oxidative Catalysis” (Journal of the American Chemical Society, 2022).

Target: T1, CjTsdA (Campylobacter jejuni thiosulfate dehydrogenase) (Campylobacter jejuni, UniProt A0A5Y8VWW6)
T1 construct: diheme c-type cytochrome (two covalent c hemes), mass 37,202 Da by LCMS with unmodified Cys138; host and tags only in supplement
Test: LCMS of intact protein (supported by absorbance and MCD spectroscopy)
Type: binding
Conditions: covalent; cysteinyl-138 sulfonate adduct; 1.5 mM sulfite, anaerobic 50 mM HEPES, 50 mM NaCl, pH 7, 20 °C; ferricyanide as oxidant

O=S(O)O [sulfite]
LCMS of intact protein (supported by absorbance and MCD spectroscopy): sulfite is shown to bind to the active site of CjTsdA
